# Reference: patent US20240156778A1, “THIOPHENE DERIVATIVES FOR USE IN TREATING PORTAL INFLAMMATION AND FIBROSIS” (ENYO PHARMA, priority 2019, published 2024)
# Columns and labels:
# NASH mouse model [1] = assay: Periportal fibrosis (% fractional area, Picro Sirius Red) in the AMLN-diet NASH mouse model; format: in vivo, male C57BL/6JRj mice; settings: 8 weeks oral dosing after high-fat (AMLN) diet; Compound #157 7 or 20 mg/kg twice daily; FIG. 2
# Procedure: (§1) Mice were fed with a high-fat diet for 30 weeks and then treated by oral administration, twice daily with either compound #157 or once daily with OCA for 8 weeks. Effects on portal/periportal inflammation and fibrosis and on lobular inflammation were determined before treatment and upon study completion.
# (§2) Five week old, male C57BL/6JRj mice were fed either chow diet (Altromin 1324, Brogaarden, Denmark) or AMLN diet (40% total fat kcal of which 18.5% were trans-fat kcal, 20% fructose, 2% cholesterol; Research Diets #D09100301). This diet was maintained for 29 weeks prior to study initiation.
# Three weeks prior to study initiation, liver biopsies were taken and animals with steatosis grade <2 and fibrosis stage <1 were deselected from the study. […]
# (§3) At termination, right medial and/or left lateral lobes of the liver (>50% of each lobe harvested) were excised and fixed in 10% neutral-buffered formalin (at least 7 days at room temperature). […] NAFLD and NASH were scored by use of criteria outlined by Kleiner et al. Hepatology 41, p. […]
# Portal fibrosis was quantified using Visiopharm Histopathology Image Analysis software (Visioparm, Hørsholm, Denmark). […] Periportal fibrosis was then detected in the periportal zone using the linear Bayesian method and reported as an area fraction.
# NASH mouse model [2] = assay: Periportal inflammation score in the AMLN-diet NASH mouse model (H&E inflammatory foci); format: in vivo, male C57BL/6JRj mice; settings: 8 weeks oral dosing after high-fat (AMLN) diet; Compound #157 7 or 20 mg/kg twice daily; OCA 30 mg/kg once daily; FIG. 1
# Procedure: as §1, §2
# Three weeks prior to study initiation, liver biopsies were taken and animals with steatosis grade <2 and fibrosis stage <1 were deselected from the study. Prior to first administration of test article, stratified randomization of mice into treatment groups was performed according to collagen 1a1 (IHC) morphometry from the week -3 biopsies. […]
# as §3
# Inflammation was evaluated by counting the number of hematoxylin and eosin (H&E) positive inflammatory foci per field using a 200× magnification (min. 5 fields per animal). […]
smiles,measurement,setting,value
O=C(Nc1scc(C2CCc3ccccc3C2)c1C(=O)O)c1ccccc1 (stereo not drawn) [Compound #157],Effect on portal/periportal fibrosis,NASH mouse model [1],resolves
same,Effect on portal/periportal inflammation,NASH mouse model [2],resolves
"CC[C@H]1[C@@H](O)[C@@H]2[C@H](CC[C@]3(C)[C@@H]([C@H](C)CCC(=O)O)CC[C@@H]23)[C@@]2(C)CC[C@@H](O)C[C@@H]12 [OCA, Obeticholic acid, reference compound]",Effect on portal/periportal inflammation,NASH mouse model [2],no effect
